Laboratory results: patent US10370352B2, “Cyclobutyl-imidazolidinone compounds” (Eli Lilly and Company, priority 2017, dated 2019)

Columns and labels:
[1] = molecular target: recombinant human ASK1 (hASK1) catalytic domain (Homo sapiens (Human), UniProt Q99683); assay: ASK1 enzymatic assay (ADP-Glo Kinase Assay); format: biochemical; details: for IC50: hASK1 0.25 nM, MKK6 300 nM, ATP 100 μM, mean ± standard deviation; for Efficacy: hASK1 enzymatic assay, standard benzamide ASK1 inhibitor = 100% inhibition, DMSO = 0%
Sequence of recombinant human ASK1 (hASK1) catalytic domain (Q99683 680-938): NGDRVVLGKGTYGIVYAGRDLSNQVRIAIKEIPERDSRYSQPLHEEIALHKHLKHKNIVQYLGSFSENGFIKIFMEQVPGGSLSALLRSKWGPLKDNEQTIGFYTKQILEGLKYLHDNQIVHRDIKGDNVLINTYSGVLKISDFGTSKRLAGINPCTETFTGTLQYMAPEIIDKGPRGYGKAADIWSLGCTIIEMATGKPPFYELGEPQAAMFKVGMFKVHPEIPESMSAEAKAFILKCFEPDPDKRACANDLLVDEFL
From the text: The purpose of this assay is to determine the effect of ASK1 inhibitors on the production of ADP by ASK1. The recombinant human ASK1 (hASK1) catalytic domain tagged with Glutathione S-transferase is used, and histidine-tagged full-length human MAP kinase kinase 6 (MKK6) and ATP are the substrate and cofactor, respectively.
The assay is done using an ADP-Glo™ Kinase Assay Kit (Promega, Catalog #V9102) according to the manufacturer's protocol with the following modifications. Briefly, hASK1 (0.25 nM) and MKK6 (300 nM) in a buffer (10 mM MOPS pH 7.0; 10 mM Mg-Acetate; 1 mM DTT; 0.025% NP-40; 0.05% BSA; 1.5% glycerol) are incubated with ASK1 inhibitors at varying concentrations ranging from 10.00 μM to 0.17 nM for 15 minutes, followed by incubation with ATP (100 μM) for 30 minutes at room temperature. ADP-Glo™ Reagent is added to terminate the kinase reaction and deplete the remaining ATP. The Kinase Detection Reagent is then added to convert ADP to ATP. The newly synthesized ATP is measured using a luciferase/luciferin reaction, and the luminescence determined by Envision (PerkinElmer). The luminescence intensities are analyzed by GeneData, and fit to a 4 parameter dose response-inhibitor logistics curve to determine IC50 values, using the effects of 5-(4-cyclopropyl-1H-imidazol-1-yl)-2-fluoro-4-methyl-N-{6-[4-(propan-2-yl)-4H-1,2,4-triazol-3-yl]pyridin-2-yl}benzamide as a standard and DMSO vehicle for 100% and 0% inhibition, respectively.

human ASK1 = human ASK1 (Homo sapiens (Human), UniProt Q99683); assay: ASK1 autophosphorylation (Thr838) assay in HEK293 cells overexpressing human ASK1; format: cell-based; details: for IC50: H2O2-stimulated (1 mM, 10 min) ASK1 autophosphorylation at Thr838, HEK293 cells, HTRF, mean ± standard deviation, read-out: HEK pASK1 IC50; for Efficacy: HEK pASK1 assay, standard benzamide ASK1 inhibitor = 100% inhibition, DMSO = 0%
Sequence of human ASK1 (Q99683 whole entry): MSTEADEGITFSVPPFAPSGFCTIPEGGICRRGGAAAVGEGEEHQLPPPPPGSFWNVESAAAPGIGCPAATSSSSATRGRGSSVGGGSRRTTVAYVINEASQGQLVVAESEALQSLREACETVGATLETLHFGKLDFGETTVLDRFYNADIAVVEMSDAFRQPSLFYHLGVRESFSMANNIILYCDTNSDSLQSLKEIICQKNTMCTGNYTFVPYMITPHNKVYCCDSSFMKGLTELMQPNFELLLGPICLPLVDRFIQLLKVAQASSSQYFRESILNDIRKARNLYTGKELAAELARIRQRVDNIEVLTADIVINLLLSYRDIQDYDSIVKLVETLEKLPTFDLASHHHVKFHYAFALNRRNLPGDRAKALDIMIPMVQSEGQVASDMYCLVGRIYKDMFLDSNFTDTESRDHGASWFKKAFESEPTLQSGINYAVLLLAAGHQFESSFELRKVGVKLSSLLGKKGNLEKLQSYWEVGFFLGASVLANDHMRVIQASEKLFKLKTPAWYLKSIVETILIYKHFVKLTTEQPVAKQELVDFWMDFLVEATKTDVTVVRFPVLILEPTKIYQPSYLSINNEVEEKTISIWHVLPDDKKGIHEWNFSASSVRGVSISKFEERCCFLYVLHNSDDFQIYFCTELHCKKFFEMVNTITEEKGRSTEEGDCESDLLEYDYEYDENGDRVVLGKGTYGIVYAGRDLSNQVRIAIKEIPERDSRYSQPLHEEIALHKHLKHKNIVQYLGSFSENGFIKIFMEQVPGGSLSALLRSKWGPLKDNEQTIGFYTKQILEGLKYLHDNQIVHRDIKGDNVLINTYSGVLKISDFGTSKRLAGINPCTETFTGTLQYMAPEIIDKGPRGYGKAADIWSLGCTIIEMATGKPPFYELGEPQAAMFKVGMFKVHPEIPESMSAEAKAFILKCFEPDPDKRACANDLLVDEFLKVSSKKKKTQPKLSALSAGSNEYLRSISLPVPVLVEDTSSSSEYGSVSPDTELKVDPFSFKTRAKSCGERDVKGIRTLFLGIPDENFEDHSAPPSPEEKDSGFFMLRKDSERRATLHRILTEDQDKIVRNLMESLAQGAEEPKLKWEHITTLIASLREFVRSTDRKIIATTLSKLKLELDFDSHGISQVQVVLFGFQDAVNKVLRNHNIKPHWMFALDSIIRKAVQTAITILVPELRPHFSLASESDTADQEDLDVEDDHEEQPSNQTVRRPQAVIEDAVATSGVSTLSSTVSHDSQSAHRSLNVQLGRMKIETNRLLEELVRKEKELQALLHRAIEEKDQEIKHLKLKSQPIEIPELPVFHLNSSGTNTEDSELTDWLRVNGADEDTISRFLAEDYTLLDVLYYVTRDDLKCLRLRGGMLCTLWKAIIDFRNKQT

Structure (SMILES): CC(C)n1cnnc1-c1cccc(N2CCN(C3CC(n4cnc(C5CC5)c4)C3)C2=O)n1 (single isomer, unassigned) [Example 2, 1-[3-(4-Cyclopropylimidazol-1-yl)cyclobutyl]-3-[6-(4-isopropyl-1,2,4-triazol-3-yl)-2-pyridyl]imidazolidin-2-one]
- IC50 [1]: 1.47 ± 0.6 nM
- Efficacy [1]: 100%
- IC50 (human ASK1): 48.8 ± 19.1 nM
- Efficacy (human ASK1): 105%

Structure (SMILES): Cc1ccc(C2CC(N3CCN(c4cccc(-c5nncn5C(C)C)n4)C3=O)C2)cn1 (single isomer, unassigned) [Example 8, 1-[6-(4-Isopropyl-1,2,4-triazol-3-yl)-2-pyridyl]-3-[3-(6-methyl-3-pyridyl)cyclobutyl]imidazolidin-2-one]
- IC50 [1]: 5.26 ± 0.72 nM
- Efficacy [1]: 100%
- IC50 (human ASK1): 235 nM
- Efficacy (human ASK1): 97.5%

Structure (SMILES): Cc1ncc(C2CC(N3CCN(c4cccc(-c5nncn5C(C)C)n4)C3=O)C2)cn1 (single isomer, unassigned) [Example 9, 1-(6-(4-Isopropyl-4H-1,2,4-triazol-3-yl)pyridin-2-yl)-3-(3-(2-methylpyrimidin-5-yl)cyclobutyl)imidazolidin-2-one]
- IC50 [1]: 6.21 ± 4.18 nM
- Efficacy [1]: 100%

Structure (SMILES): CC(C)n1cnnc1-c1cccc(N2CCN(C3CC(n4cnc(C(F)(F)F)c4)C3)C2=O)n1 (stereo not drawn) [Example 3, 1-(6-(4-Isopropyl-4H-1,2,4-triazol-3-yl)pyridin-2-yl)-3-(3-(4-(trifluoromethyl)-1H-imidazol-1-yl)cyclobutyl)imidazolidin-2-one]
- IC50 [1]: 2.8 ± 0.97 nM
- Efficacy [1]: 100%
- IC50 (human ASK1): 126 nM
- Efficacy (human ASK1): 98.5%

Structure (SMILES): CC(C)n1cnnc1-c1cccc(N2CCN(C3CC(n4cnc(C5CC5)n4)C3)C2=O)n1 (stereo not drawn) [Example 4, 1-[3-(3-Cyclopropyl-1,2,4-triazol-1-yl)cyclobutyl]-3-[6-(4-isopropyl-1,2,4-triazol-3-yl)-2-pyridyl]imidazolidin-2-one]
- IC50 [1]: 2.56 ± 0.68 nM
- Efficacy [1]: 100%
- IC50 (human ASK1): 108 nM
- Efficacy (human ASK1): 99%

Structure (SMILES): CC(C)n1cnnc1-c1cccc(N2CCN(C3CC(n4cnc(C(C)(C)C)c4)C3)C2=O)n1 (stereo not drawn) [Example 5, 1-(3-(4-(tert-Butyl)-1H-imidazol-1-yl)cyclobutyl)-3-(6-(4-isopropyl-4H-1,2,4-triazol-3-yl)pyridin-2-yl)imidazolidin-2-one]
- IC50 [1]: 1.84 ± 0.64 nM
- Efficacy [1]: 100%

Structure (SMILES): CC(C)n1cc(C2CC(N3CCN(c4cccc(-c5nncn5C(C)C)n4)C3=O)C2)cn1 (stereo not drawn) [Example 6, 1-[3-(1-Isopropylpyrazol-4-yl)cyclobutyl]-3-[6-(4-isopropyl-1,2,4-triazol-3-yl)-2-pyridyl]imidazolidin-2-one]
- IC50 [1]: 2.17 ± 0.45 nM
- Efficacy [1]: 100%
- IC50 (human ASK1): 27.1 nM
- Efficacy (human ASK1): 102%
